Experimental data as given in patent US12023308B2, “Agents for reversing toxic proteinopathies” (THE BROAD INSTITUTE, INC., priority 2019, dated 2024).
Read-outs that look alike come from different tables or passages of the source.

Legend:
MUC1-fs [1] = assay: MUC1-fs immunofluorescence high-content imaging assay in P cells; format: cell-based, human
Protocol: Cells grown on CellCarrier-96 or -384 well Ultra microplates (PerkinElmer) were fixed 10 min in PBS containing 4% PFA (Electron Microscopy Sciences), permeabilized 15 min in 0.5% Triton X100 (X100-100ML, Sigma-Aldrich), blocked for 1 hr in blocking reagent (100 mM Tris HCL pH8; 150 mM NaCL; 5 g/L Blocking Reagent [11096176001, Roche]) and treated for 1 hr with primary antibodies diluted in blocking reagent (1:500, monoclonal Fab-A-VSH anti-fsMUC1, AbD22655.2, Bio-Rad; 1:2000, monoclonal Mouse anti-MUC1 (CD227), 60137, Stemcell Technologies; 1:200, polyclonal, Mouse anti-GM130, ab169276, Abcam; 1:100, polyclonal, Rabbit anti-TMED9, 216201-AP, Proteintech; 1:800, polyclonal, Rabbit anti-SEC31A, 17913-1-AP, Proteintech; 1:400, monoclonal, Rabbit anti-EEA1 (C45B10), 3288S, Cell signaling technology; 1:100, polyclonal, Rabbit anti-ERGIC-53, E1031, Sigma-Aldrich; 1:400, monoclonal, Mouse anti-LAMP1 (D401S), 15665, Cell signaling technology; 1:1000, polyclonal, Rabbit anti-Calnexin, ab22595, Abcam; 1:2000, monoclonal, Rabbit anti-GM130 (D6B1) XP, 12480, Cell signaling technology; 1:200, monoclonal, Rabbit anti TNG46, ab50595, Abcam; 1:100, monoclonal, Rabbit anti-Rab7 (D95F2) XP, 9367, Cell signaling technology; 1:100, monoclonal, Rabbit anti-Rab11 (D4F5) XP, 5589, Cell signaling technology). Fixed, stained cells were washed three times in PBS and incubated for 1 hr with secondary antibodies in blocking solution (1:500, Alexa Fluor 488® Goat anti-Mouse IgG, A-11029, Thermo Fisher Scientific®; 1:500, Alexa Fluor 647® F(ab′)2-Goat anti-Rabbit IgG, A21246, Thermo Fisher Scientific®; 1:2000, Hoechst 33342, H3570, Thermo Fisher Scientific®), then washed three times in PBS and imaged.
Cell nuclei were first identified using Hoechst staining, and cell number was calculated. Cytoplasmic regions were then detected around each nucleus based on combined channels. The cells from the edge of the field were eliminated from the analysis. For the quantification of protein abundance, the total signal intensity value for each antibody was calculated separately in the cell cytoplasm and the average signal per cell was calculated for each well.
P cells were seeded 24 hr prior to compound treatment at a density of 12,000 cells/well in 384 well Cell Carrier Ultra plates (6057308, Perkin Elmer), pre-coated with 0.25 mg/mL Synthemax II SC Substrate (3535, Corning). Compounds of the repurposing library set (Corsello et al., 2017) were used at 5 doses (35, 3.5, 0.35, 0.035 and 0.0035 μM) for the primary screen and 10 doses (16, 5.6, 1.8, 0.6, 0.21, 0.07, 0.02, 0.008, 0.002 and 0.0008 μM) for the following screens. The compounds, in two replicates, were transferred from compound source plates to the cell plates using the HighRes Pin Tool. […] After 48 hr incubation, cells were fixed for 20 min in 4% PFA (Electron Microscopy Sciences) in PBS, washed twice, then permeabilized (10 min) with 0.5% Triton-X100 (X100-100ML, Sigma-Aldrich) in PBS and washed once more. Cells were blocked for 10 min at RT with Blocking solution (100 mM Tris HCL pH8; 150 mM NaCL; 5 g/L Blocking Reagent [11096176001, Roche]), then incubated 90 min at RT with one of the following primary antibodies in Roche Blocking solution: 1:500, monoclonal Fab-A-VSH anti-MUC1-fs, AbD22655.2, Bio-Rad; 1:2000, monoclonal mouse anti-MUC1 (214D4), 05-652-KC, Millipore; 1:1000, monoclonal, Rabbit anti-GM130 (D6B1) XP, 12480, Cell signaling technology. […]

[2] = Dose response exposure PK study in male 129-ELITE mice; format: in vivo, mouse; details: single p.o. doses
Protocol: 4) A pharmacokinetic study was performed by Charles River Labs (CRL) (Worcester, Mass., USA) in fed male 129-ELITE mice (study EF-0024-DA-MI) to determine the dose response exposure of BRD-4780, BRD-1365 and BRD-7709 in plasma, kidney, liver and eye. Brain exposure to BRD-4780 at 30 mg/kg was also evaluated A single dose of BRD-4780 was administered at 30.0 mg/kg or 100 mg/kg orally (p.o) in a clear solution of 5% dextrose in water (D5W). For BRD-1365 and BRD-7709, a single dose of either compound was administered at 10.0 mg/kg, 30.0 mg/kg, 50.0 mg/kg or 100 mg/kg orally (p.o) in a clear solution of 5% dextrose in water (D5W). Blood, kidney, liver and eye tissue were collected from n=3 mice per dose group at six time points post p.o. dose administration (1, 2, 6, 10, 16 and 24 hours) with all three compounds. Brain tissue was collected from n=3 mice per dose group at six time points post p.o. dose administration (1, 2, 6, 10, 16 and 24 hours) with BRD-4780 at 30 mg/kg. Plasma obtained by centrifugation and tissue fragments were homogenized. Plasma and tissue drug concentration was determined by LC-MS/MS and reported as drug concentration in ng/mL for plasma and ng/mg for kidney, liver and eye tissue, plotted as the mean±standard deviation concentration for males for BRD-4780 ([…]), BRD-1365 (FIG. 11K) and BRD-7709 (FIG. 11M). Standard pharmacokinetic parameters were calculated for males for BRD-4780 ([…]), BRD-1365 (FIG. 11O) and BRD-7709 (FIG. 11P).

MUC1-fs [3] = assay: Immunoblot analysis of MUC1-fs in P cells under pathway perturbations; format: cell-based, human; details: for effect on BRD-4780-mediated MUC1-fs clearance (immunoblot): with BRD-4780 (5 μM)
Excerpt: Cells were lysed in lysing buffer solution (9803, Cell Signaling Technology) containing protease inhibitors (05892791001, Roche) and phosphatase inhibitors (04906837001, Roche). […] To normalize protein concentration, proteins in the supernatant of cells or of kidney lysates were quantified using the Pierce BCA Protein Assay Kit (23225, Thermo Fisher Scientific®). Normalized protein lysates were then mixed with NuPAGE LDS sample buffer (NP0008, Thermo Scientific) and NuPAGE reducing agent (NP0004, Thermo Scientific) and heated to 75° C. for 10 min prior to SDS-PAGE gel electrophoresis using NuPAGE Tris-Acetate SDS Running Buffer (LA0041, Thermo Scientific) or NuPAGE MES SDS running buffer (NP0002, Thermo Fisher Scientific®) depending on protein molecular weight of interest. Electrophoretically separated proteins were transferred to a nitrocellulose membrane (1704158, BioRad) using Trans-Blot® Turbo™ Blotting System (1704155, BioRad) following manufacturer's protocol. Membranes were blocked in 5% Nonfat Dry Milk (9999S, Cell Signaling Technology) in PBS with 0.1% Tween® 20 (PBS-T), and probed with primary antibody overnight at 4° C. Following three washes with PBS-T, the membranes were incubated with secondary antibody for 1 hr at room temperature, washed three more times in PBS-T, and incubated with Super Signal West Dura (34076, Thermo Fisher Scientific®) or Super Signal West Pico (34087, Thermo Fisher Scientific®) and immunoreactive bands were imaged by G:BOX Chemi XT4 (G:BOX-CHEMI-XT4, Syngene).
Detection of MUC1-fs in P cells at baseline and following secretory pathway perturbations was performed using immunoblot and IF analyses. For immunoblot experiments (FIGS. 5E and 13D), P cells were grown in 6-well plates to high confluence. For IF experiments (FIGS. 5B-5D and 13A-13C), P cells were plated in 384-well plates at 12,000 cells/well. Following 24 hr, cells were treated with 5 μM BRD-4780 or DMSO alone, or in combination with 100 nM Bafilomycin A (B1793, Sigma-Aldrich), or 200 ng/mL Brefeldin A (B7651, Sigma-Aldrich) for a maximum period of 24 hr as indicated. For TMED9 or Nischarin depletion experiments, transduced/transfected P cells were plated either in 96-well plates at 60,000 cells/well for IF (FIGS. 6C, 6D and 14B), or grown in 6-well plates to high confluence for immunoblot detection (FIGS. 6B and 14C). Cells were then treated with 5 μM BRD-4780 or DMSO for 24 hr (for IF detection) or 72 hr (for immunoblot analysis) and were processed accordingly.

MUC1-fs [4] = assay: MUC1-fs subcellular distribution (co-localization IF) in P cells; format: cell-based, human
Protocol: Cell nuclei were first identified using Hoechst staining, and cell number was calculated. Cytoplasmic regions were then detected around each nucleus based on combined channels. The cells from the edge of the field were eliminated from the analysis. For the quantification of protein abundance, the total signal intensity value for each antibody was calculated separately in the cell cytoplasm and the average signal per cell was calculated for each well. For quantitation of MUC1-fs cellular distribution and trafficking, the analysis was performed as described in FIG. 13A using the “spot” identification feature for the detection of MUC1-fs and the different organelles.
Detection of MUC1-fs in P cells at baseline and following secretory pathway perturbations was performed using immunoblot and IF analyses. […] For IF experiments (FIGS. 5B-5D and 13A-13C), P cells were plated in 384-well plates at 12,000 cells/well.

IRE = assay: RT-PCR analysis of XBP1 splicing in THP-treated P cells; format: cell-based, human; details: P cells treated with THP (100 nM)
Protocol: XBP1 splicing was analyzed by standard RT-PCR. Briefly, RNA was isolated from patient cells using a RNeasy Mini Kit (74106, Qiagen). One μg of RNA was converted to cDNA using the SuperScript First-Strand Synthesis system for RT-PCR (11904-018, Invitrogen). The primer sequences used are as follows: Human XBP1 Forward Primer: 5′ TTACGAGAGAAAACTCATGGCC 3′ (SEQ ID NO: 12). Human XBP1 Reverse Primer: 5′ GGGTCCAAGTTGTCCAGAATGC 3′ (SEQ ID NO: 13). PCR was carried out on 3 μL of the resulting cDNA solution using the OneTaq Hot Start Master Mix (M0484S, NEB). Five μL of PCR product was run on a 2% agarose gel for 90 min at 150 V.

PERK = assay: Immunoblot of eIF2a phosphorylation in P cells; format: cell-based, human
Protocol: (§1) Cells were lysed in lysing buffer solution (9803, Cell Signaling Technology) containing protease inhibitors (05892791001, Roche) and phosphatase inhibitors (04906837001, Roche). Mouse kidney tissues were lysed by tissue homogenizer (Tissue-Tearo™, BioSpec Products) in lysing buffer solution containing inhibitors as above, followed by 20 min rocking at 4° C. and centrifugation at 16,000 g, 4° C. for 5 min. To normalize protein concentration, proteins in the supernatant of cells or of kidney lysates were quantified using the Pierce BCA Protein Assay Kit (23225, Thermo Fisher Scientific®). Normalized protein lysates were then mixed with NuPAGE LDS sample buffer (NP0008, Thermo Scientific) and NuPAGE reducing agent (NP0004, Thermo Scientific) and heated to 75° C. for 10 min prior to SDS-PAGE gel electrophoresis using NuPAGE Tris-Acetate SDS Running Buffer (LA0041, Thermo Scientific) or NuPAGE MES SDS running buffer (NP0002, Thermo Fisher Scientific®) depending on protein molecular weight of interest. Electrophoretically separated proteins were transferred to a nitrocellulose membrane (1704158, BioRad) using Trans-Blot® Turbo™ Blotting System (1704155, BioRad) following manufacturer's protocol. Membranes were blocked in 5% Nonfat Dry Milk (9999S, Cell Signaling Technology) in PBS with 0.1% Tween® 20 (PBS-T), and probed with primary antibody overnight at 4° C. […]

total MUC1 mRNA = assay: MUC1 transcription assay (RT-PCR profiling screen) in P cells; format: cell-based, human; details: preliminary in vitro experiments in P cells
Protocol: qPCR was performed using a previously described protocol (Bittker, 2012). P cells seeded at 2000 cells/well in 384-well, clear bottom, white wall plates were grown for 24 hr, then treated with profiling compounds transferred by pinning to duplicate plates. JQ1 (250 nM) and DMSO were used for controls as above. After 24 hr, cells were washed and cDNAs were made using ABI Cells-to-Ct kit (Thermo Fisher Scientific®, Waltham, Mass.). MUC1 and HMBS delta Cp values were determined using a Roche LightCycler 480 Instrument and TaqMan probes for MUC1 FAM (4351368 assay ID Hs00159357_m1) and HMBS VIC (4448486-assay ID Hs00609297_m1) (Thermo Fisher Scientific®, Waltham, Mass.), in 5 μL reactions. The fold change effect of the compounds on total MUC1 mRNA was normalized to JQ1 and DMSO controls, as described above.

P cells [5] = assay: P cell viability upon THP treatment (live imaging, rescue); format: cell-based, human; details: Homo sapiens; DMSO pre-treatment, 5 days THP
Protocol: To study apoptosis and cell death in N and P cells, 384 well Cell Carrier Ultra plates (6057308, Perkin Elmer), pre-coated with 0.25 mg/mL Synthemax II SC Substrate (3535, Corning) were used. […] CellEvent Caspase-3/7 Green Detection Reagent (C10423, Thermo Fisher Scientific®) and DRAQ7 (DR71000, Biostatus) were used at 1:5000 to monitor apoptosis and cell death respectively. Cells were imaged daily during 4 days to monitor viability and image analysis was performed as described below. For rescue experiments, P cells were plated on 96 well Cell Carrier Ultra microplates (6055302, Perkin Elmer) at 30,000 cells/well and cultured for 24 hr. BRD-4780 (5 μM) was applied as a pretreatment for 48 hr prior to thapsigargin exposure and throughout the experiment. Thapsigargin was applied at increasing doses and the plates were imaged daily thereafter.
For the measurement of P cell rescue from THP-induced cell death by BRD-4780 (FIGS. 3I and 3J), no dyes were added to avoid any influence on cell growth. Digital phase contrast images were used for cell identification and count, and autofluorescence in the far-red channel was used for detection of dead cells. Cells with no autofluorescence were identified and calculated as live cell.
P cells were seeded 12 hr prior to profiling compound treatment at a density of 12,000 cells/well in 384 well Cell Carrier Ultra plates (6057308, Perkin Elmer), pre-coated with 0.25 mg/mL Synthemax II SC Substrate (3535, Corning). After 24 hr, CellEvent Caspase-3/7 Green Detection Reagent (C10423, Thermo Fisher Scientific®) and DRAQ7 (DR71000, Biostatus) were added at 1:5000 final dilution in the presence or absence of thapsigargin (100 nM). Cells were imaged daily during 7 days to monitor viability. Image acquisition and analysis was done as described above and viability was assessed as fraction of live cells at day 5 of thapsigargin treatment, and at the day 6 for DMSO.

P cells [6] = assay: THP-induced apoptosis (caspase 3/7) in N and P cells; format: cell-based, human; details: P cells compared to N cells, 72 hour
Protocol: To study apoptosis and cell death in N and P cells, 384 well Cell Carrier Ultra plates (6057308, Perkin Elmer), pre-coated with 0.25 mg/mL Synthemax II SC Substrate (3535, Corning) were used. […] CellEvent Caspase-3/7 Green Detection Reagent (C10423, Thermo Fisher Scientific®) and DRAQ7 (DR71000, Biostatus) were used at 1:5000 to monitor apoptosis and cell death respectively. Cells were imaged daily during 4 days to monitor viability and image analysis was performed as described below. For rescue experiments, P cells were plated on 96 well Cell Carrier Ultra microplates (6055302, Perkin Elmer) at 30,000 cells/well and cultured for 24 hr. […]
Caspase 3/7 activation and/or DRAQ7 staining were used to calculate the fraction of cells going through apoptosis and/or cell death, respectively. Single cells were first identified using the digital phase contrast channel and cell number was calculated. Fluorescence intensities were then measured and the threshold for Caspase 3/7 and DRAQ7 positive staining was determined. As an output, the fraction of live (neither caspase3/7 nor DRAQ7 signal detected), apoptotic (caspase3/7 positive) or dead cells (DRAQ7 positive) was calculated in each well at a particular time point.
Cell viability was determined using caspase activation as described above.

ATF6 = assay: Immunoblot of BiP in THP-treated P cells; format: cell-based, human; details: P cells treated with THP (100 nM)
Protocol: as §1

## CC(C)[C@H]1[C@@H]2CC[C@@H](C2)[C@@H]1N (single isomer, unassigned) [BRD-1365]
MUC1-fs [1]; high-content imaging assay
  FS MUC1 cytoplasm EMax: −39%
MUC1-fs [1]; read-out: FS MUC1 cytoplasm IC50; high-content imaging assay
  IC50: 730 nM
[2]
  dose proportionality of AUC exposures: not dose proportional

## CC(C)[C@@H]1[C@H]2CC[C@H](C2)[C@H]1N (single isomer, unassigned) [BRD-7709]
MUC1-fs [1]; high-content imaging assay
  FS MUC1 cytoplasm EMax: −39%
MUC1-fs [1]; high-content imaging assay; read-out: FS MUC1 cytoplasm IC50
  IC50: 660 nM
[2]
  dose proportionality of AUC exposures: nearly dose proportional

## C[C@H]1CCC/C=C/[C@@H]2C[C@H](O)C[C@H]2[C@H](O)/C=C/C(=O)O1 [BFA, Brefeldin A]
MUC1-fs [3]
  effect on BRD-4780-mediated MUC1-fs clearance (immunoblot): abrogated the effect of BRD-4780 on MUC1-fs clearance
MUC1-fs [4]
  MUC1-fs subcellular distribution: MUC1-fs accumulation in the ER

## CO/C1=C\C(C)=C\[C@@H](C)[C@@H](O)[C@@H](C)C/C(C)=C/C=C/[C@H](OC)[C@@H]([C@@H](C)[C@@H](O)[C@H](C)[C@@]2(O)C[C@@H](O)[C@H](C)[C@@H](C(C)C)O2)OC1=O [Bafilomycin A]
MUC1-fs [3]
  effect on BRD-4780-mediated MUC1-fs clearance (immunoblot): prevented BRD-4780 from clearing mutant MUC1-fs
MUC1-fs [4]
  MUC1-fs subcellular distribution: accumulation of MUC1-fs in the late secretory pathway

## CC(C)C[C@H](NC(=O)[C@H](Cc1ccccc1)NC(=O)c1cnccn1)B(O)O [Bortezomib]
MUC1-fs [3]
  effect on BRD-4780-mediated MUC1-fs clearance (immunoblot): did not affect MUC1-fs removal by BRD-4780

## Cc1cc(=O)oc2c(C=O)c(O)ccc12 [Compound 4μ8c]
IRE
  IRE activation (XBP1 splicing): dose-dependent inhibition of XBP1 splicing

## Cc1cccc(CC(=O)N2CCc3c2ccc(-c2cn(C)c4ncnc(N)c24)c3F)n1 [GSK2656157]
PERK
  PERK activation (eIF2a phosphorylation): dose-dependent reduction of eIF2a phosphorylation

## Cc1sc2c(c1C)C(c1ccc(Cl)cc1)=N[C@@H](CC(=O)OC(C)(C)C)c1nnc(C)n1-2 [JQ1, reference compound]
Total MUC1 mRNA
  transcriptional suppression of both MUC1-fs and MUC1-wt: 100%

## C/C=C(/C)C(=O)O[C@H]1C(C)=C2[C@H]([C@@H]1OC(=O)CCCCCCC)[C@@](C)(OC(C)=O)C[C@H](OC(=O)CCC)[C@@]1(O)[C@H]2OC(=O)[C@@]1(C)O [THP, thapsigargin, reference compound]
P cells [5]
  EC50: 17 nM
P cells [6]
  susceptibility of P cells to THP-induced apoptosis: higher susceptibility to apoptosis compared to N cells

## PF-429242
ATF6
  ATF6 activation (BiP abundance): dose-dependent reduction of BiP abundance
MUC1-fs [3]; 10 μM, 24 hours
  MUC1-fs abundance (immunoblot): MUC1-fs accumulation
